PubChem BioAssay (NCI)
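96-well plates; 48 h exposure; 5 concentrations. Endpoints by linear interpolation between flanking doses. Not reached: highest tested concentration assigned. GI50 = concentration required for 50% inhibition of growth. TGI marks complete inhibition of growth.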

What was measured:
Assay in all cases: DTP human tumour cell line panel, 48 h
[1] = tested on: MDA-MB-435
[2] = tested on: SK-OV-3 ovarian
[3] = tested on: SW-620 colon
[4] = tested on: MALME-3M melanoma
[5] = tested on: T-47D breast
[6] = tested on: 786-0 renal
[7] = tested on: HCC-2998 colon
[8] = tested on: SN12C renal
[9] = tested on: UACC-257 melanoma
[10] = tested on: HOP-62 NSCLC
[11] = tested on: K-562 leukemia
[12] = tested on: NCI/ADR-RES ovarian
[13] = tested on: SF-539 CNS
[14] = tested on: HL-60(TB) leukemia
[15] = tested on: RPMI-8226 leukemia
[16] = tested on: HT29 colon
[17] = tested on: OVCAR-8 ovarian
[18] = tested on: BT-549 breast
[19] = tested on: LOX IMVI melanoma
[20] = tested on: HOP-92 NSCLC
[21] = tested on: MOLT-4 leukemia
[22] = tested on: UACC-62 melanoma
[23] = tested on: OVCAR-3 ovarian
[24] = tested on: COLO 205 colon
[25] = tested on: SNB-75 CNS
[26] = tested on: A498 renal
[27] = tested on: NCI-H23 lung
[28] = tested on: SK-MEL-5 melanoma
[29] = tested on: IGROV1 ovarian
[30] = tested on: HS 578T breast
[31] = tested on: KM12 colon
[32] = tested on: OVCAR-5 ovarian
[33] = tested on: UO-31 renal
[34] = tested on: ACHN renal
[35] = tested on: EKVX NSCLC
[36] = tested on: NCI-H522 lung
[37] = tested on: NCI-H460 lung
[38] = tested on: PC-3 prostate
[39] = tested on: NCI-H226 lung
[40] = tested on: SR leukemia
[41] = tested on: U251 CNS
[42] = tested on: SF-268 CNS
[43] = tested on: HCT-116 colon
[44] = tested on: SK-MEL-28 melanoma
[45] = tested on: DU-145 prostate
[46] = tested on: MCF7 breast
[47] = tested on: SF-295 CNS
[48] = tested on: TK-10 renal
[49] = tested on: A549 NSCLC
[50] = tested on: OVCAR-4 ovarian
[51] = tested on: SK-MEL-2 melanoma
[52] = tested on: SNB-19 CNS
[53] = tested on: CCRF-CEM leukemia
[54] = tested on: RXF 393 renal
[55] = tested on: MDA-MB-231 breast
[56] = tested on: HCT-15 colon
[57] = tested on: CAKI-1 renal

C[C@]12CC[C@H](O)C[C@@H]1CC[C@@H]1[C@@H]2CC[C@@]2(C)[C@H]1CC[C@@H]2[C@](C)(O)CCc1ccc(F)cc1
GI50 [1]: 7.84 µM
TGI [1]: 25 µM
GI50 [2]: 16.1 µM
TGI [2]: 76.2 µM
GI50 [3]: 7.13 µM
TGI [3]: 24.1 µM
GI50 [4]: 17.9 µM
TGI [4]: 41.8 µM
GI50 [5]: 1.95 µM
TGI [5]: 45.1 µM
GI50 [6]: 6.14 µM
TGI [6]: 21 µM
GI50 [7]: 9.79 µM
TGI [7]: 23.8 µM
GI50 [8]: 3.79 µM
TGI [8]: 15.7 µM
GI50 [9]: 4.53 µM
TGI [9]: 35.5 µM
GI50 [10]: 13.1 µM
TGI [10]: 43.9 µM
GI50 [11]: 1.88 µM
TGI [11]: > 100 µM
GI50 [12]: 2.87 µM
TGI [12]: 13.9 µM
GI50 [13]: 6.94 µM
TGI [13]: 20.8 µM
GI50 [14]: 3.87 µM
TGI [14]: 24 µM
GI50 [15]: 2.4 µM
TGI [15]: 43.9 µM
GI50 [16]: 6.42 µM
TGI [16]: 36.7 µM
GI50 [17]: 8.35 µM
TGI [17]: 62.7 µM
GI50 [18]: 3.85 µM
TGI [18]: 17.5 µM
GI50 [19]: 3.41 µM
TGI [19]: 15.1 µM
GI50 [20]: 4.22 µM
TGI [20]: 22.5 µM
GI50 [21]: 3.21 µM
TGI [21]: 24.6 µM
GI50 [22]: 10.6 µM
TGI [22]: 26.7 µM
GI50 [23]: 4.72 µM
TGI [23]: 16.7 µM
GI50 [24]: 8.81 µM
TGI [24]: 42.4 µM
GI50 [25]: 4.07 µM
TGI [25]: 26.9 µM
GI50 [26]: 2.4 µM
TGI [26]: 15.6 µM
GI50 [27]: 3.78 µM
TGI [27]: 18.4 µM
GI50 [28]: 1.32 µM
TGI [28]: 6.81 µM
GI50 [29]: 6.04 µM
TGI [29]: 20.7 µM
GI50 [30]: 7.71 µM
TGI [30]: 37.9 µM
GI50 [31]: 4.22 µM
TGI [31]: 19.4 µM
GI50 [32]: 5.64 µM
TGI [32]: 19.6 µM
GI50 [33]: 4.43 µM
TGI [33]: 31.4 µM
GI50 [34]: 5.81 µM
TGI [34]: 18.9 µM
GI50 [35]: 2.27 µM
TGI [35]: 18.1 µM
GI50 [36]: 4.45 µM
TGI [36]: 49.4 µM
GI50 [37]: 3.38 µM
TGI [37]: 14 µM
GI50 [38]: 5.02 µM
TGI [38]: 30.7 µM
GI50 [39]: 5.97 µM
TGI [39]: 24.8 µM
GI50 [40]: 2.11 µM
TGI [40]: 22.3 µM
GI50 [41]: 10.9 µM
TGI [41]: 31 µM
GI50 [42]: 8.46 µM
TGI [42]: 25.4 µM
GI50 [43]: 3.65 µM
TGI [43]: 16.4 µM
GI50 [44]: 12.3 µM
TGI [44]: 26.4 µM
GI50 [45]: 7.14 µM
TGI [45]: 23.7 µM
GI50 [46]: 2.55 µM
TGI [46]: 15 µM
GI50 [47]: 2.43 µM
TGI [47]: 10.9 µM
GI50 [48]: 16.7 µM
TGI [48]: 56.4 µM
GI50 [49]: 5.04 µM
TGI [49]: 39.2 µM
GI50 [50]: 1.77 µM
TGI [50]: 18.4 µM
GI50 [51]: 11.4 µM
TGI [51]: 51.9 µM
GI50 [52]: 10.5 µM
TGI [52]: 25.1 µM
GI50 [53]: 4.56 µM
TGI [53]: 59.7 µM
GI50 [54]: 2.46 µM
TGI [54]: 10.8 µM
GI50 [55]: 5.33 µM
TGI [55]: 20.5 µM
GI50 [56]: 3.82 µM
TGI [56]: 18.3 µM
GI50 [57]: 5.43 µM
TGI [57]: 20.1 µM
